Test results from patent US5605901A, “Indane derivatives, processes for preparing the same and synthetic intermediate of the same” (Tanabe Seiyaku Co., Ltd., priority 1993, dated 1997).

assay: Action of protecting mouse from death induced by endotoxin; assay type: in vivo, mouse (ddy strain); conditions: 100 mg/kg orally, 30 min before endotoxin 100 mg/10 ml/kg i.p.; determined when control survival became 20 (about 20 hours)
Procedure: (Action of Protecting Mouse from Death Induced by Endotoxin)
To ddy strain male mice (one group: 10 mice) which had fasted for about 24 hours, each test sample dissolved or suspended in a 0.25% sodium carboxymethyl cellulose (CMC) aqueous solution was orally administered (100 mg/kg). After 30 minutes, 100 mg/10 ml/kg of endotoxin (lipopoly-saccharide) derived from Escherichia coli dissolved in physiological saline was administered intraperitoneally. When the survival rate of the control group to which the CMC aqueous solution had been orally administered became 20 (about 20 hours after administration of endotoxin), the survival rates of the groups to which the test samples had been administered were determined.

Structure (SMILES) | Survival rate [%]
O=C1CCC(c2ccc3c(c2)CC(NC(=O)c2cccnc2)C3)=NN1 (stereo not drawn) [Example 18] | 80
CCCN(C(=O)OCC(C)C)C1Cc2ccc(C3=NNC(=O)CC3)cc2C1 (stereo not drawn) [Example 35, 2-(N-propyl-N-isobutoxycarbonylamino)-5-[4,5-dihydropyridazin-3(2H)-on-6-yl]indane] | 80
CCCN(C(=O)OCc1ccccc1)C1Cc2ccc(C3=NNC(=O)CC3)cc2C1 (stereo not drawn) [Example 37] | 60
O=C1CCC(c2ccc3c(c2)CC(NC(=O)c2cnccn2)C3)=NN1 (stereo not drawn) [Example 22] | 70
CCC(=O)NC1Cc2ccc(C3=NNC(=O)CC3)cc2C1 (stereo not drawn) [Example 12] | 90
CCCC(=O)NC1Cc2ccc(C3=NNC(=O)CC3)cc2C1 (stereo not drawn) [Example 11, 2-butyrylamino-5-[4,5-dihydropyridazin-3(2H)-on-6-yl]indane] | 100
O=C1CCC(c2ccc3c(c2)CC(NC(=O)c2ccccn2)C3)=NN1 (stereo not drawn) [Example 25] | 80

assay: Action on rat glomerular nephritis (nephrotoxic serum-induced; protein excretion in urine); assay type: in vivo, rat (WKY strain); conditions: po, 30 mg/kg/10 ml orally twice a day for 8 days, NTS-induced nephritis, 24 hours urine collected after 7 days, read-out: Inhibition rate of excretion of protein in urine
Procedure: (Action on Rat Glomerular Nephritis)
Rabbits were immunized several times with a renal glomerular basement membrane fraction obtained from WKY strain rats and an adjuvant. Thereafter, blood was collected to obtain a nephrotoxic serum (NTS). This NTS was diluted by 50 times with physiological saline, and the diluted NTS was once administered intravenously to male WKY rats of 8 weeks old in a dose of 2.5 ml per 1 kg of body weight to induce nephritis. In normal group of rats, the same volume of physiological saline was intravenously administered.
In the experiment, one group consisted of 6 rats, and each compound to be tested was suspended in water with small amount of Tween 80 (trade name, produced by Nacalai Tesque Co.), and was orally administered to the test group of rats at a dose of 30 mg/kg/10 ml twice a day for 8 days. In normal group and control group of rats, the same volume of water was orally administered instead of the test compound. After 7 days, the rats were placed in metabolic cages and urine was collected for 24 hours. Concentrations of protein in urine were measured by the sulfosalicylic acid method to determine amounts of protein excreted in the urine (mg/day). The inhibition rate of excretion of protein were calculated by the following equation. [formula]

Structure (SMILES) | inhibition in vivo at 30 mg/kg [%]
O=C(NCC1Cc2ccc(-c3ccc(=O)[nH]n3)cc2C1)c1cccnc1 (stereo not drawn) [Example 60] | 59.5
C=CC(=O)NCCC1Cc2ccc(-c3ccc(=O)[nH]n3)cc2C1 (stereo not drawn) [Example 105] | 60.2
C=CC(=O)NCCCCC1Cc2ccc(-c3ccc(=O)[nH]n3)cc2C1 (stereo not drawn) [Example 63] | 61.6
Nc1ncccc1C(=O)NCCC1Cc2ccc(-c3ccc(=O)[nH]n3)cc2C1 (stereo not drawn) [Example 129] | 98.9
C=CC(=O)NCCCC1Cc2ccc(-c3ccc(=O)[nH]n3)cc2C1 (stereo not drawn) [Example 106] | 81
Cc1ncccc1C(=O)NCCC1Cc2ccc(-c3ccc(=O)[nH]n3)cc2C1 (stereo not drawn) [Example 127] | 93
CCCC(=O)NC1Cc2ccc(-c3ccc(=O)[nH]n3)cc2C1 (stereo not drawn) [Example 40, 2-butyrylamino-5-[pyridazin-3(2H)-on-6-yl]indane] | 72.4
O=C1CCC(c2ccc3c(c2)CC(CCNC(=O)c2cccnc2)C3)=NN1 (stereo not drawn) [Example 148] | 88.9
CCCOC(=O)NC1Cc2ccc(-c3ccc(=O)[nH]n3)cc2C1 (stereo not drawn) [Example 48] | 60.3
O=C(NCCC1Cc2ccc(-c3ccc(=O)[nH]n3)cc2C1)c1ccncc1 (stereo not drawn) [Example 109] | 67.4
O=C(NCCC1Cc2ccc(-c3ccc(=O)[nH]n3)cc2C1)c1cccnc1 (stereo not drawn) [Example 110] | 91.8
